Measurements taken from article PMC7714403 (JCI Insight, 2020).

Tests used:
[1] = target: YANK3 (Homo sapiens, UniProt Q86UX6); assay: KiNativ, OCI cells live cell; assay type: cell-based; details: 2 h, labeling site Lys2, peptide […]
[2] = target: T1, MAP2K3 (Homo sapiens, UniProt P46734); assay: KiNativ, OCI cells live cell; assay type: cell-based; details: 2 h
T1 sequence (P46734 1-347): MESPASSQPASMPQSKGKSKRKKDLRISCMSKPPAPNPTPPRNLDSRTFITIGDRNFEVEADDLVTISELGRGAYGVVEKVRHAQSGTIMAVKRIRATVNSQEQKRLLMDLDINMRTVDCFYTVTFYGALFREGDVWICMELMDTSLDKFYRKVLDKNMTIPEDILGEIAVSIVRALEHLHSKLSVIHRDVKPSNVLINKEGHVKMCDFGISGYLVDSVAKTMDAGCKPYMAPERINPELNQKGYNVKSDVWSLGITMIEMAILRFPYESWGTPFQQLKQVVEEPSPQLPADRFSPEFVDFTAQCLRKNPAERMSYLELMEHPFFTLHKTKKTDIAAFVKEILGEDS

[3] = target: MLK3 (Homo sapiens, UniProt Q16584); assay: KiNativ, OCI cells live cell; assay type: cell-based; details: labeling site Lys2, peptide DLKSNNILLLQPIESDDMEHK
[4] = target: FLT3 ITD/D835V (Homo sapiens, UniProt P36888, D835V/ITD); assay: KdELECT binding assay
[5] = system: NDR1, NDR2; assay: KiNativ, OCI cells live cell; assay type: cell-based, human; details: labeling site Activation Loop, peptide LSDFGLCTGLKK
[6] = target: TAK1 (Homo sapiens, UniProt O43318); assay: KiNativ, OCI cells live cell; assay type: cell-based; details: 2 h, labeling site Lys2, peptide […]
[7] = target: NLK (Homo sapiens, UniProt Q9UBE8); assay: KiNativ, OCI cells live cell; assay type: cell-based; details: 2 h, labeling site Lys2, peptide […]
[8] = target: T2, ALK (Homo sapiens, UniProt Q9UM73); assay: KdELECT binding assay
T2 construct: purchased Eurofins DiscoverX

[9] = system: ZC1/HGK, ZC2/TNIK, ZC3/MINK; assay: KiNativ, MOLM13 live cells; assay type: cell-based, human; details: 100 nM, 2 hours; Lys2
Experimental: (§1) Samples were analyzed by KiNativ in situ kinase profiling by ActivX Biosciences.

[10] = system: PCTAIRE2, PCTAIRE3; assay: KiNativ, MOLM13 live cells; assay type: cell-based, human; details: 100 nM, 2 hours; Lys1
Experimental: as §1

[11] = system: Wnk1, Wnk2; assay: KiNativ, MOLM13 live cells; assay type: cell-based, human; details: 100 nM, 2 hours; ATP Loop
Experimental: as §1

[12] = system: CaMK2a, CaMK2b, CaMK2d, CaMK2g; assay: KiNativ, MOLM13 live cells; assay type: cell-based, human; details: 100 nM, 2 hours; Lys2
Experimental: as §1

[13] = system: IKKe, TBK1; assay: KiNativ, MOLM13 live cells; assay type: cell-based, human; details: 100 nM, 2 hours; Lys2
Experimental: as §1

[14] = system: ABL, ARG; assay: KiNativ, MOLM13 live cells; assay type: cell-based, human; details: 100 nM, 2 hours
Experimental: as §1

[15] = system: AKT2, AKT3; assay: KiNativ, MOLM13 live cells; assay type: cell-based, human; details: 100 nM, 2 hours; ATP Loop
Experimental: as §1

[16] = system: AMPKa1, AMPKa2; assay: KiNativ, MOLM13 live cells; assay type: cell-based, human; details: 100 nM, 2 hours
Experimental: as §1

[17] = system: CDK11, CDK8; assay: KiNativ, MOLM13 live cells; assay type: cell-based, human; details: 100 nM, 2 hours; Lys2
Experimental: as §1

[18] = target: Erk2 (Homo sapiens, UniProt P28482); assay: KiNativ, OCI cells live cell; assay type: cell-based; details: 2 h, labeling site Lys2, peptide […]
[19] = target: MAP4K3 (Homo sapiens, UniProt Q8IVH8); assay: KiNativ, OCI cells live cell; assay type: cell-based; details: labeling site Lys2, peptide DIKGANILLTDNGHVK
[20] = target: MAST3 (Homo sapiens, UniProt O60307); assay: KiNativ, OCI cells live cell; assay type: cell-based; details: 2 h, labeling site Lys2, peptide […]
[21] = system: FYN, SRC, YES; assay: KiNativ, OCI cells live cell; assay type: cell-based, human; details: labeling site Activation Loop, peptide QGAKFPIKWTAPEAALYGR
[22] = target: SGK3 (Homo sapiens, UniProt Q96BR1); assay: KiNativ, OCI cells live cell; assay type: cell-based; details: 2 h, labeling site Lys1, peptide […]
[23] = target: CDK7 (Homo sapiens, UniProt P50613); assay: KdELECT binding assay; set-up: purchased Eurofins DiscoverX
[24] = target: SLK (Homo sapiens, UniProt Q9H2G2); assay: KiNativ, OCI cells live cell; assay type: cell-based; details: 2 h, labeling site Lys2, peptide […]
[25] = target: T3, FLT3 D835Y (Homo sapiens, UniProt P36888, D835Y); assay: Kinase assay by Reaction Biology; assay type: biochemical; details: enzymatic kinase assay
T3 construct: purchased Eurofins DiscoverX

[26] = system: MAP3K2, MAP3K3; assay: KiNativ, OCI cells live cell; assay type: cell-based, human; details: labeling site Lys2, peptide DIKGANILR
[27] = target: MAP3K5 (Homo sapiens, UniProt Q99683); assay: KiNativ, OCI cells live cell; assay type: cell-based; details: 2 h, labeling site Lys2, peptide […]
[28] = target: BRAF (Homo sapiens, UniProt P15056); assay: KiNativ, OCI cells live cell; assay type: cell-based; details: 2 h, labeling site Lys2, peptide […]
[29] = target: TBK1 (Homo sapiens, UniProt Q9UHD2); assay: KiNativ, OCI cells live cell; assay type: cell-based; details: 2 h, labeling site Lys1, peptide […]
[30] = target: MAP4K5 (Homo sapiens, UniProt Q9Y4K4); assay: KiNativ, OCI cells live cell; assay type: cell-based; details: 2 h
[31] = target: T4, TYK2 (Homo sapiens, UniProt P29597); assay: KdELECT binding assay
T4 construct: purchased Eurofins DiscoverX

Sequence of MAP4K5 (Q9Y4K4 whole entry): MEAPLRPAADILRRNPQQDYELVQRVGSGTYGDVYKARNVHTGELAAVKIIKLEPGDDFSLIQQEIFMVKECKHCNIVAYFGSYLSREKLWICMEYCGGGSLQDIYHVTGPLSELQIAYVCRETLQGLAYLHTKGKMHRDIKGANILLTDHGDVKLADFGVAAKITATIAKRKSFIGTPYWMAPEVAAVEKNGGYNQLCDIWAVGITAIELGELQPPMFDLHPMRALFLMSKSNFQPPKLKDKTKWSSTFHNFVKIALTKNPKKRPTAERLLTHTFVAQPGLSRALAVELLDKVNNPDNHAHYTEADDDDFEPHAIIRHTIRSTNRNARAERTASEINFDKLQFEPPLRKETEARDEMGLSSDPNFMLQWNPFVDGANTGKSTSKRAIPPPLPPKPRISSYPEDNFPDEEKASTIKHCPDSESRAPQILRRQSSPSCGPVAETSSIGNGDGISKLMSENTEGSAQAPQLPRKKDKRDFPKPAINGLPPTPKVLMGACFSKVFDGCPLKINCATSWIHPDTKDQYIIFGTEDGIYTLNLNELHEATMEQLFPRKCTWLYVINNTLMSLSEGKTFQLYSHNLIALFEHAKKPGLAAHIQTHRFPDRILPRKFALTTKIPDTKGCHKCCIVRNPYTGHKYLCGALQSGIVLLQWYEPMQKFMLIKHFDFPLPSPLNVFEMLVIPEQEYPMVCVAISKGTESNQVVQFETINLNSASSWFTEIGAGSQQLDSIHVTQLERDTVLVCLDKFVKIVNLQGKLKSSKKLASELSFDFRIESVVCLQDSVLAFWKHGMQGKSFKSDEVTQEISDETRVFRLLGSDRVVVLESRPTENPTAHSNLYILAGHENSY
Sequence of MAST3 (O60307 whole entry): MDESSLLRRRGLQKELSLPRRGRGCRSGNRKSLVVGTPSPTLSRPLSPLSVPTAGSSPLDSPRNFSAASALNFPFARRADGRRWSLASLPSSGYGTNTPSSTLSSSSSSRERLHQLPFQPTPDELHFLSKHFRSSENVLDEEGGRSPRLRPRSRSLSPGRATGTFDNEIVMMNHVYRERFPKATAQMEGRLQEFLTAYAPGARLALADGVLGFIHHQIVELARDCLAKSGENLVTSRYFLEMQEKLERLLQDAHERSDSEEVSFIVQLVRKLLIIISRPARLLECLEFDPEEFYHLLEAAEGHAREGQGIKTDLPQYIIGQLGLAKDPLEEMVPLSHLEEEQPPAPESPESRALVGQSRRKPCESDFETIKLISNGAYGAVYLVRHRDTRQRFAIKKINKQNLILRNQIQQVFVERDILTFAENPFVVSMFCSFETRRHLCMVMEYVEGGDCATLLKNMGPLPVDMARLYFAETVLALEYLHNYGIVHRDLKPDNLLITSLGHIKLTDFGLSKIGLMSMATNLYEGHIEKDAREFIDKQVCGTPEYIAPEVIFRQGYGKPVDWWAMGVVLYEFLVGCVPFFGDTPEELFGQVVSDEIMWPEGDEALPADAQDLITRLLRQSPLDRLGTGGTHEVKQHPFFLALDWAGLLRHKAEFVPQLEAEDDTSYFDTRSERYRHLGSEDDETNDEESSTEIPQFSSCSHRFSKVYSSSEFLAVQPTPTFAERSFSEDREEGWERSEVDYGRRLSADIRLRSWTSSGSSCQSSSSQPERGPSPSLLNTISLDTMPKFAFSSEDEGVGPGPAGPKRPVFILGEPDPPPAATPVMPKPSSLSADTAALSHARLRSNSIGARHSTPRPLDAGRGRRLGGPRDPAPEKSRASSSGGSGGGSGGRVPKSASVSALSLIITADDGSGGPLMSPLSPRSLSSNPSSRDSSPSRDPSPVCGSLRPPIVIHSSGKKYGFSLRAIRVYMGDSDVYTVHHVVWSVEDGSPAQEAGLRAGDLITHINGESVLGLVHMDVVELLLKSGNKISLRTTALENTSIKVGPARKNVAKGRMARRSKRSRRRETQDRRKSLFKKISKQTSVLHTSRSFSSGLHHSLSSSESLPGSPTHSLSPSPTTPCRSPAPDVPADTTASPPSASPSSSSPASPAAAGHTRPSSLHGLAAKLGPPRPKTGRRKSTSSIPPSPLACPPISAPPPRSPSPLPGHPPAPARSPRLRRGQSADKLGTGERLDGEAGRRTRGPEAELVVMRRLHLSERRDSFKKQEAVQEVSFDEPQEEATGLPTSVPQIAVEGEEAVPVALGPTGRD
Sequence of SGK3 (Q96BR1 whole entry): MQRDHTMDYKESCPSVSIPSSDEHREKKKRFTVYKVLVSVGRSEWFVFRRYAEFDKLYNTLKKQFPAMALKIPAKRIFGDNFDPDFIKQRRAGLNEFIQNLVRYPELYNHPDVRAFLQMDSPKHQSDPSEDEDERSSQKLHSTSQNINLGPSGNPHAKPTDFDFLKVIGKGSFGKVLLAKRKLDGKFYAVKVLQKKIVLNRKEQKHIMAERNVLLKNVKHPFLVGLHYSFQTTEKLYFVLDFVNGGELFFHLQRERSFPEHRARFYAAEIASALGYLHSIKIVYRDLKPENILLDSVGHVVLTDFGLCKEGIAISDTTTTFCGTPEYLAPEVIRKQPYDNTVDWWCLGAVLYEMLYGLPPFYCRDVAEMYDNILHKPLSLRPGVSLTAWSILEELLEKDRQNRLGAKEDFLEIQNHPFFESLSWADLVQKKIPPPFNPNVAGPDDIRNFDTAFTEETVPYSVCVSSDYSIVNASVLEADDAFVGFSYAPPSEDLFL
Sequence of MLK3 (Q16584 whole entry): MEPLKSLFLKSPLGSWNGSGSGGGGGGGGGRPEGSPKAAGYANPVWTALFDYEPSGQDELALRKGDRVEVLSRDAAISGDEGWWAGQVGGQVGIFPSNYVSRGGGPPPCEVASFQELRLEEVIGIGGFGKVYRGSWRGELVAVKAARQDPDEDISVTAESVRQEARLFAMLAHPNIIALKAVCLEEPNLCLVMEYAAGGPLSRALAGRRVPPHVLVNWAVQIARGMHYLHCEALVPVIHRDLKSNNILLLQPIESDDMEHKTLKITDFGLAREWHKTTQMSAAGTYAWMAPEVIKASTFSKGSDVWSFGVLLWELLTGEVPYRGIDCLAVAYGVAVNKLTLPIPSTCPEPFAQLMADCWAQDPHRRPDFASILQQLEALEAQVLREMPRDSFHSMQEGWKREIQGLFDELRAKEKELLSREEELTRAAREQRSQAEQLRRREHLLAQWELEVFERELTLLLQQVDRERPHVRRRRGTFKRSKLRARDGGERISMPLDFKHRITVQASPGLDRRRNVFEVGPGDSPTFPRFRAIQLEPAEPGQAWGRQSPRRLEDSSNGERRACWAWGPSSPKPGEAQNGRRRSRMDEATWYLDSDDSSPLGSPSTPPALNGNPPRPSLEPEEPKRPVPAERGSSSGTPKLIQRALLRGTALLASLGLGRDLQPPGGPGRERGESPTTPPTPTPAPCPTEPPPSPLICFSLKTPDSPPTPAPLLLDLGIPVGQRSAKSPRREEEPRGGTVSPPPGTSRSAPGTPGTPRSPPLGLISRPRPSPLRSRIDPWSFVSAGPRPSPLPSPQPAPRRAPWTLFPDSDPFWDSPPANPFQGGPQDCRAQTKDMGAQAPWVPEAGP
Sequence of TAK1 (O43318 whole entry): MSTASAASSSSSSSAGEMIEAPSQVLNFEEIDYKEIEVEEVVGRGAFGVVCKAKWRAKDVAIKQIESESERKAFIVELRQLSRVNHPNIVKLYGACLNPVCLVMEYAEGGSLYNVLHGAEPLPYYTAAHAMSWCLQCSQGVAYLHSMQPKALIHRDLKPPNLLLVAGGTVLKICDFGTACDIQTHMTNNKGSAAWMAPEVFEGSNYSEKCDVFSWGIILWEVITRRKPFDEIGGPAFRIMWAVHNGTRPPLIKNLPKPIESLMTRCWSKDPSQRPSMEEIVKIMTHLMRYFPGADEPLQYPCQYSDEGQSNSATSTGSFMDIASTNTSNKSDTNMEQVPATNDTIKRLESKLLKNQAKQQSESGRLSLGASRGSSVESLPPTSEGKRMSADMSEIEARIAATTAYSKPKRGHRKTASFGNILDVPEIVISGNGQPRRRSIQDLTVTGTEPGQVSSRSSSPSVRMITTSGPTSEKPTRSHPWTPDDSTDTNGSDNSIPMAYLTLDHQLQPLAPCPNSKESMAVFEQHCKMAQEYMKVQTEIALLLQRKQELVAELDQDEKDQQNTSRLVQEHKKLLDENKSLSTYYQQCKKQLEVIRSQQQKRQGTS
Sequence of TBK1 (Q9UHD2 whole entry): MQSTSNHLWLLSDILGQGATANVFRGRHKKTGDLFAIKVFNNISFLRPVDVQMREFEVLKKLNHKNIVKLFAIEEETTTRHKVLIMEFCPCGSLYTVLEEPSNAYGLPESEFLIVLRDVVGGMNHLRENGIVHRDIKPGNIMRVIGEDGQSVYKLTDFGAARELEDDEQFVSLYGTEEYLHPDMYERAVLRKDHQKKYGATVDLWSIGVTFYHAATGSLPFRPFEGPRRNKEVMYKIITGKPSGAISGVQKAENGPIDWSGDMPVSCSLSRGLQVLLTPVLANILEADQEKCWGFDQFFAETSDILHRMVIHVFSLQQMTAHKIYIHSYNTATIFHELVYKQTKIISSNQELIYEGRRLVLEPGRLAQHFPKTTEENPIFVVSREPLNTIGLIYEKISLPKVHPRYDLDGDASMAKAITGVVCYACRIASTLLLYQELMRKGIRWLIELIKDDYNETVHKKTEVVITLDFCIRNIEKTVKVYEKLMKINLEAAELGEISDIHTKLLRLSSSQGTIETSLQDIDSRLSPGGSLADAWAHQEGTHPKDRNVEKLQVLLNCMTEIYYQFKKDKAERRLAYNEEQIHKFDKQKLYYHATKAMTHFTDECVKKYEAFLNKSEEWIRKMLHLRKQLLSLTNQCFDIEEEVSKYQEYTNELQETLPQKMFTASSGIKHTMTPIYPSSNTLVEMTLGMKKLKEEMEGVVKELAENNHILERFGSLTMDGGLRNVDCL

CN1CCN(Cc2ccc(Nc3ncc(Cl)c(Nc4ccccc4S(=O)(=O)N(C)C)n3)cc2)CC1 [TP-0903]
inhibition at 0.1 µM [1]: 8.4% | inhibition at 0.1 µM ([2]; labeling site Activation Loop, peptide MCDFGISGYLVDSVAKTMDAGCKPYMAPER): 6.8% | inhibition at 0.1 µM ([2]; labeling site Lys1, peptide HAQSGTIMAVKR): 8% | inhibition at 0.1 µM ([2]; labeling site Lys2, peptide DVKPSNVLINK): 8.2% | Inhibition [3]: 31.9% | Kd [4]: 790 pM | Inhibition [5]: 18.3% | inhibition at 0.1 µM [6]: -11.5% | inhibition at 0.1 µM [7]: -23% | Kd [8]: < 5000 pM | Inhibition vs DMSO [9]: 50.7% | Inhibition vs DMSO [10]: -8.3% | Inhibition vs DMSO [11]: -30.2% | Inhibition vs DMSO [12]: -2.0% | Inhibition vs DMSO [13]: 74.5% | Inhibition vs DMSO ([14]; Activation Loop): 5.0% | Inhibition vs DMSO ([14]; Lys1): 24.5% | Inhibition vs DMSO [15]: -63.3% | Inhibition vs DMSO ([16]; Lys1): 19.6% | Inhibition vs DMSO ([16]; Lys2): 33.8% | Inhibition vs DMSO [17]: -1.1% | inhibition at 0.1 µM [18]: 22.7% | Inhibition [19]: 64.9% | inhibition at 0.1 µM [20]: -0.112% | Inhibition [21]: 16.0% | inhibition at 0.1 µM [22]: -12.3% | Kd [23]: < 5000 pM | inhibition at 0.1 µM [24]: 86.1% | IC50 [25]: 120 pM | Inhibition [26]: 21.4% | inhibition at 0.1 µM [27]: -1.8% | inhibition at 0.1 µM [28]: -3.1% | inhibition at 0.1 µM [29]: 83% | inhibition at 0.1 µM ([30]; labeling site Lys1, peptide NVHTGELAAVKIIK): 28.4% | inhibition at 0.1 µM ([30]; labeling site Lys2, peptide DIKGANILLTDHGDVK): 60.8% | Kd [31]: < 5000 pM
